{
  "source": "paper doi:10.1101/171595v1",
  "about": "(biorxiv, 2017)",
  "system": "HpaM",
  "conditions": "read-out: apparent Km; 50 mM PBS pH 7.0, 0.2 mM FAD, 5HPA as co-substrate, 25°C",
  "data": [
    {"smiles": "NC(=O)C1=CN([C@@H]2O[C@H](COP(=O)(O)OP(=O)(O)OC[C@H]3O[C@@H](n4cnc5c(N)ncnc54)[C@H](O)[C@@H]3O)[C@@H](O)[C@H]2O)C=CC1", "note": "[NADH]", "values": [
      {"measurement": "Km", "value": "37.8 ± 3.4", "unit": "µM"}
    ]}
  ]
}
